Values quoted from earlier work in US20240408101A1, “COMPOSITION AND METHODS OF TREATMENT USING […] - ENHANCED SUPPLEMENTATION” (Xygenyx Inc., priority 2023, published 2024).
Where a SMILES comes first, the peptide text is derived from it.

What was measured:
[1] = even when dietary intake occurs in equal portions
[2] = compared to α-tocopherol taken as 1.0
[3] = mice
[4] = in vivo
[5] = in vivo; remark: listed apart in the source
F2-isoprostane = conditions: large doses of 1600-3200 IU/day
[6] = dietary supplementation, doses up to 400 IU/day
[7] = dietary supplementation, doses up to 400 IU/day, controlled trials
[8] = in combination with 10-20 mg β-carotene and 400-500 mg vitamin C, doses around 400-500 IU
skin [9] = conditions: topical application, concentrations 0.5-5%
skin [10] = conditions: as penetration enhancer for transdermal drugs
[11] = system: wide dynamic range neurons in the ventroposterolateral nucleus of the thalamus
skin [12] = conditions: topical formulations, within four weeks of treatment

Question: Which “concentration in vivo relative to α-tocopherol” value [1] does the source give for `Cc1c(O)cc2c(c1C)O[C@](C)(CCC[C@H](C)CCC[C@H](C)CCCC(C)C)CC2` [γ-tocopherol] here?
Answer: roughly 10%

Question: What about the relative biological activity [2] of the same molecule?
Answer: 0.1

Question: For `CC(CN)C(=O)O` [L-BAIBA, L-beta-aminoisobutyric acid], which tolerated dose [3] is on record?
Answer: 10-100 mg/kg of bodyweight

Question: For “HGH: hormone comprising a peptide chain synthesized in the pituitary gland”, which biological half-life [4] is on record?
Answer: 10-20 minutes

Question: Which “dose considered safe and well-tolerated” value [5] does the source give for `CCNC(=O)CC[C@H](N)C(=O)O` [Theanine] here?
Answer: up to 400 mg per day

Question: For `Cc1cc(O)cc2c1O[C@](C)(CCC[C@H](C)CCC[C@H](C)CCCC(C)C)CC2` [δ-tocopherol], which relative biological activity [2] is on record?
Answer: 0.03

Question: For `Cc1c(C)c2c(c(C)c1O)CC[C@@](C)(CCC[C@H](C)CCC[C@H](C)CCCC(C)C)O2` [α-tocopherol], which “blood plasma concentration of F2-isoprostane” value (F2-isoprostane) is on record?
Answer: significantly lower

Question: What about the “reduction of risk of coronary disease” value [6] of the same molecule?
Answer: up to 34%

Question: And the relative biological activity [2]?
Answer: 1.0

Question: And the “reduction of risk of developing neurodegenerative diseases” value [7]?
Answer: ≤ 24%

Question: And the “reduction in the development of age-related cataracts” value [8]?
Answer: 23%

Question: For `C=CCCCCCCCCC(=O)N[C@@H](Cc1ccccc1)C(=O)O` [UP, Undecylenoyl phenylalanine], which “time to skin lightening effects” value (skin [9]) is on record?
Answer: ≥ 7 days

Question: Which “increase of transdermal drug uptake, factor” value (skin [10]) does the source give for `CC(C)[C@@H]1CC[C@@H](C)C[C@H]1O` [Menthol] here?
Answer: ≥ 10

Question: Which “increase of transdermal drug uptake, factor” value (skin [10]) does the source give for `CC12CCC(CC1)C(C)(C)O2` [eucalyptol, 1,8-epoxy-p-menthane] here?
Answer: more than 10

Question: Which “analgesic power relative to morphine” value [11] does the source give for `CCCCCc1cc(O)c2c(c1)OC(C)(C)C1CCC(C)=CC21` (centres unmarked) [THC, Δ-9-tetrahydrocannabinol] here?
Answer: ten times more powerful than morphine

Question: With `Cc1cc(O)c(C)c2c1O[C@](C)(CCC[C@H](C)CCC[C@H](C)CCCC(C)C)CC2` [β-tocopherol] as the molecule, how does the relative biological activity [2] read?
Answer: 0.5

Question: With `CC[C@H](C)[C@H](NC(=O)[C@H](CC(=O)O)NC(=O)[C@@H](N)CCCCN)C(=O)N[C@@H](CCCNC(N)=O)C(N)=O` [tripeptide-10 citrulline, Tripeptide-10 citrulline] (HELM PEPTIDE1{K.D.I.[Cit].[am]}$$$$V2.0) as the molecule, how does the improvement of suppleness (skin [12]) read?
Answer: ≤ 54%
